Laboratory results: US6896892B2, “Insecticide-impregnated fabric and method of production” (The United States of America as represented by the …, priority 2000, dated 2005)
Entries after “also recorded” stand apart in the source; their conditions may differ.

Tests used:
[1] = test system: Anopheles gambiae mosquitoes (Kisumu [KIS] strain); test: WHO cone bioassay of impregnated netting, knock-down and mortality, KIS strain; type: in vivo; details: nets 500 mg/m^2 permethrin alone; after five wash/rinse cycles
Procedure: (§1) Insectary-reared and sugar-fed Anopheles gambiae mosquitoes (Kisumu [KIS], G3 and Asembo [AB] strains), 3-4 days old, were tested for susceptibility (or resistance) to permethrin-impregnated nets, using the WHO adult mosquito susceptibility test kit. About 20 mosquitoes were used in each assay. Cohort mosquitoes were then used to bioassay the pyrethroid-impregnated netting samples using the WHO cone bioassay with a 3 minute exposure time. During an assay, the cone was held on its side, which placed the net sample in a perpendicular or vertical position with respect to the floor, as is the case when testing an actual hanging net. In each assay 7-12 mosquitoes were used with 3-4 such assays run for each experiment. After exposure for the prescribed time, mortality was determined after the mosquitoes were held overnight (24 hours) in clean cartons with sugar water for nourishment. Final mortality was corrected for control mortality. Knock-down was defined as the number of mosquitoes alive or dead, present on the floor of the carton 30 minutes after exposure. Knock-down is considered to be a more accurate measurement of insecticide efficacy because in the wild any mosquito that falls to the ground serves almost immediately as food for other insects (e.g., ants). Temperature and humidity conducive to the survival of the mosquitoes were maintained.

[2] = test system: Anopheles gambiae mosquitoes (Kisumu [KIS], G3 and Asembo [AB] strains); test: WHO cone bioassay of impregnated netting, all strains; type: in vivo
Procedure: as §1

[3] = test system: Anopheles gambiae mosquitoes (Asembo [AB] strain); test: WHO cone bioassay of impregnated netting, knock-down and mortality, AB strain; type: in vivo; details: nets 500 mg/m^2 permethrin alone; after one wash/rinse cycle
Procedure: as §1

[4] = test system: Anopheles gambiae mosquitoes (G3 strain); test: WHO cone bioassay of impregnated netting, knock-down and mortality, G3 strain; type: in vivo; details: nets 500 mg/m^2 permethrin alone; two wash/rinse cycles
Procedure: as §1

[5] = Wash/rinse cycles of netting samples, permethrin removed per cycle; type: physicochemical
Procedure: Netting samples were repeatedly washed and each wash and rinse solution was analyzed to determine the concentration of impregnated insecticide removed during each wash cycle. After several wash/rinse cycles, when the insecticidal efficacy had become depleted, the residual insecticide on the net was also determined.
A volume of 100 ml of a standardized detergent (2% aqueous sodium dodecyl sulfate [SDS]) was added to a 4 ounce wide mouth screw-cap bottle. An impregnated net sample (bioassayed beforehand) was folded twice and placed into the SDS solution, and the cap was applied and the bottle was shaken for 5 minutes on a mechanical shaker. After removing the cap, the net sample was removed, wrung out and placed in a 4 ounce bottle containing 100 ml of de-ionized water and shaken for five minutes, after which, the sample was removed, wrung out and left to dry overnight. The sample was rebioassayed the next day and at later times. To each wash solution was added a volume of 100 μl of the appropriate internal standard (IS) solution in acetone, and the contents were vigorously shaken by hand. To the rinse solution was added a 0.5 g quantity of dry SDS, and the contents were shaken to dissolve the SDS. Then a 100 μl volume of IS was added, and the contents were vigorously shaken. Two ml of each wash and rinse solution was then transferred to a 4 ml screw-cap vial, 3 ml of ethyl acetate were added and the contents were shaken. After centrifugation to clarify the ethyl acetate layer, about 1 ml of the ethyl acetate layer of each extract was transferred to an autosampler vial and injected onto the GC system described above to determine insecticide content.
For washing experiments involving permethrin, the wash and rinse solutions were injected directly onto a reversed-phase, high-performance liquid chromatographic system with ultraviolet (UV) detection, to determine the permethrin content of the solutions.

CC1(C)C(C=C(Cl)Cl)C1C(=O)OCc1cccc(Oc2ccccc2)c1 (stereo not drawn) [Permethrin Alone, permethrin]
knock-down [1]: less than 50% | mortality [1]: approximately 20% | effectiveness against all strains ([2]; nets 500 mg/m^2 permethrin alone, six wash/rinse cycles): completely disappeared | effectiveness against all strains ([2]; nets 1000 mg/m^2 permethrin alone, after four washings): lost most of their effectiveness | effectiveness (knock-down and mortality) [3]: completely ineffective; also recorded: all effectiveness with this strain was lost | knock-down [4]: approximately 20% | mortality [4]: ~10% | insecticide lost after the first washing ([5]; nets 500 or 1000 mg/m^2 permethrin alone): 63-90% | Amt (%) washed off during a W/R cycle ([5]; permethrin alone 500 mg/m^2, W/R = 1): 63.0% | Amt (%) washed off during a W/R cycle ([5]; permethrin alone 500 mg/m^2, W/R = 2): 4.3% | Amt (%) washed off during a W/R cycle ([5]; permethrin alone 500 mg/m^2, W/R = 3): 4.7% | Amt (%) washed off during a W/R cycle ([5]; permethrin alone 500 mg/m^2, W/R = 4): 17.5% | Amt (%) washed off during a W/R cycle ([5]; permethrin alone 500 mg/m^2, W/R = 5): 7.6% | Amt (%) washed off during a W/R cycle ([5]; permethrin alone 500 mg/m^2, W/R = 6): 2.8% | Amt (%) washed off during a W/R cycle ([5]; permethrin alone 1000 mg/m^2, W/R = 1): 90.7% | Amt (%) washed off during a W/R cycle ([5]; permethrin alone 1000 mg/m^2, W/R = 2): 2.4% | Amt (%) washed off during a W/R cycle ([5]; permethrin alone 1000 mg/m^2, W/R = 3): 0.9% | Amt (%) washed off during a W/R cycle ([5]; permethrin alone 1000 mg/m^2, W/R = 4): 0.9%
